In publication doi:10.1101/2025.11.20.689572v1 (biorxiv, 2025):
Read-outs that look alike come from different tables or passages of the source.

How the values were obtained:
CHRM2 = target: T1, CHRM2 (Homo sapiens, UniProt P08172); assay: cell-based; parameters: species or system HEK293; TRUPATH BRET2 G-protein dissociation; antagonist mode against agonist EC80; conditions: agonist mode, % of control agonist
T1 sequence (P08172 1-466): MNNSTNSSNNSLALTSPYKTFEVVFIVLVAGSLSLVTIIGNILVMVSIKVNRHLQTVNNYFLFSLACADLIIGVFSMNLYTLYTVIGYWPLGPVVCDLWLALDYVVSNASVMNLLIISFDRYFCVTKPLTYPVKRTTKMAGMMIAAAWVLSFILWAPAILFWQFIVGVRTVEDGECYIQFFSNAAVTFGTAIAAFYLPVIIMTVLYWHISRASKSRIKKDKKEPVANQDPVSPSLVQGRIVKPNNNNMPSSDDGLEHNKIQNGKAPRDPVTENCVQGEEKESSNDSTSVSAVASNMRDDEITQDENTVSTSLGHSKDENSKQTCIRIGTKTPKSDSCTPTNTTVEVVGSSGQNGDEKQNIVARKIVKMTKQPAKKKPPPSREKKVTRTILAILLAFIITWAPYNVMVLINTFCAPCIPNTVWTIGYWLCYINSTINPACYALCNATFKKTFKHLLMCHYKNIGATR

HTR1A [1] = target: T2, HTR1A (Homo sapiens, UniProt P08908); assay: cell-based; parameters: species or system HEK293; TRUPATH BRET2 G-protein dissociation; antagonist mode against agonist EC80; conditions: agonist mode, % of control agonist
T2 sequence (P08908 1-422): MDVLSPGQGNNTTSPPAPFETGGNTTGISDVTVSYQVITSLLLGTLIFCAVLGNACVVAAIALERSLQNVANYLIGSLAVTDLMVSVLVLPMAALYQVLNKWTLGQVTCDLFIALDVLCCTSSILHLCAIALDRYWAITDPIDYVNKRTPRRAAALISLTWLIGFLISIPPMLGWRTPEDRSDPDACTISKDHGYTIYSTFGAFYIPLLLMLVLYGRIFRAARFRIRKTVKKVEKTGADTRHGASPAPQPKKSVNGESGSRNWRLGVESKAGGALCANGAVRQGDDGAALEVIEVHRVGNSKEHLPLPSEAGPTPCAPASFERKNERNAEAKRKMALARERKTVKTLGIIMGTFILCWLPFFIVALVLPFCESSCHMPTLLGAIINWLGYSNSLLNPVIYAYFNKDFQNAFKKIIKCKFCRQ

HRH4 = HRH4 (Homo sapiens, UniProt Q9H3N8); assay: cell-based; parameters: species or system HEK293; TRUPATH BRET2 G-protein dissociation; antagonist mode against agonist EC80; conditions: agonist mode, % of control agonist
Chain of HRH4 (Q9H3N8 whole entry): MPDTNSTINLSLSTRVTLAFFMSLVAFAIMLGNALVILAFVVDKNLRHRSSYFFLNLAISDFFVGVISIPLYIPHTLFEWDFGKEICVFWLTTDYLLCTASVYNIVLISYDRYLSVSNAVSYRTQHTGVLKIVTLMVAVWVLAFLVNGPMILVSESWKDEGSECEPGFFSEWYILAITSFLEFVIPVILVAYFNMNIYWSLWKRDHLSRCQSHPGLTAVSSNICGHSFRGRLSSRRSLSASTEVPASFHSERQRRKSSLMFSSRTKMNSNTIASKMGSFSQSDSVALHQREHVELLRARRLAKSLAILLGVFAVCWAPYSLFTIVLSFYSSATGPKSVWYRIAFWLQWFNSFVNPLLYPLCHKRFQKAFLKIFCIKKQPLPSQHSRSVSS

HRH3 = HRH3 (Homo sapiens, UniProt Q9Y5N1); assay: cell-based; parameters: species or system HEK293; TRUPATH BRET2 G-protein dissociation; antagonist mode against agonist EC80; conditions: agonist mode
Chain of HRH3 (Q9Y5N1 whole entry): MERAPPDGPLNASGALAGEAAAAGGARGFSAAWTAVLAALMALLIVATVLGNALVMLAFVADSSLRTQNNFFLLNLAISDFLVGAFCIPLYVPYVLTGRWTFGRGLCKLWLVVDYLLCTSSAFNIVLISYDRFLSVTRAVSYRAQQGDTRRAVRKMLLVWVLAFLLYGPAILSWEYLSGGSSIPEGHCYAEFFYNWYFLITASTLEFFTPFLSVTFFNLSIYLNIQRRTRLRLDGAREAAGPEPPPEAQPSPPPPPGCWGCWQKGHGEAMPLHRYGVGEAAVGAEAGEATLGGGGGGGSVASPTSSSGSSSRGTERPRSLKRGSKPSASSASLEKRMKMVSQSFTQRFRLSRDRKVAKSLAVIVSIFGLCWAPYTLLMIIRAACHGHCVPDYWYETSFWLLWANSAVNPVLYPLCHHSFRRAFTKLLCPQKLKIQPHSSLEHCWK

HTR1A [2] = target: T2, HTR1A; assay: cell-based; parameters: species or system HEK293; TRUPATH BRET2 G-protein dissociation; antagonist mode against agonist EC80; conditions: agonist mode
5-HT2C = target: T3, 5-HT2C (Homo sapiens, UniProt P28335); assay: competitive radioligand binding, HEK293 membranes
T3 construct: gene HTR2C; full-length receptor; HEK293 cell membranes
T3 sequence (P28335 33-458): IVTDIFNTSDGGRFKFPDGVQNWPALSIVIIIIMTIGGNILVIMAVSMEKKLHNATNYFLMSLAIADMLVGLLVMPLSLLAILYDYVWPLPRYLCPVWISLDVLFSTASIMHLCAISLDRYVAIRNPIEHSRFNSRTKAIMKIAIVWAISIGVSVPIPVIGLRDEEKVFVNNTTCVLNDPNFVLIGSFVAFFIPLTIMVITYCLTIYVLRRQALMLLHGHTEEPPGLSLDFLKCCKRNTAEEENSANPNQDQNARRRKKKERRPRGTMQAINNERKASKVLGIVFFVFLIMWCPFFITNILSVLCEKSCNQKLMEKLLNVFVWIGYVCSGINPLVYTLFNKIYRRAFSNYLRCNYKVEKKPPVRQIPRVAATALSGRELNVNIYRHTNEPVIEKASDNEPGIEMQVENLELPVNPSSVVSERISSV
From the text: competitive radioligand binding, HEK293 membranes on 5-HT2C

DOR = target: T4, DOR (Homo sapiens, UniProt P41143); assay: biochemical; parameters: species or system HEK293; PDSP competitive radioligand binding, membranes of transfected HEK293 cells, filtration, Ki by Cheng-Prusoff
T4 construct: gene OPRD1
T4 sequence (P41143 whole entry): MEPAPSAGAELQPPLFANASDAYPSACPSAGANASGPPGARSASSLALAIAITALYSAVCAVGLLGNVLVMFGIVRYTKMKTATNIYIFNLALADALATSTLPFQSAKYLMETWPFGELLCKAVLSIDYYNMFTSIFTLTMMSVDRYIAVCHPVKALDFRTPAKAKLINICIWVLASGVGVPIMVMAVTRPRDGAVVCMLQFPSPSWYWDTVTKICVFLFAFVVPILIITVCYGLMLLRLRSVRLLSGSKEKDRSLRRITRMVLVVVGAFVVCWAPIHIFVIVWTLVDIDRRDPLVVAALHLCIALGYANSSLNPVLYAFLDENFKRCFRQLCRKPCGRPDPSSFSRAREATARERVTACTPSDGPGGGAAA
Experimental: (§1) Competitive radioligand binding assays were performed at the NIMH Psychoactive Drug Screening Program (PDSP) using membranes from transiently transfected HEK293 cells in 96-well format as described. Complete, target-specific protocols are available at the PDSP website (https://pdsp.unc.edu/pdspweb/?site=assays). Primary screenings were run at a single test concentration (10 µM) in quadruplicate. […] Secondary assays were conducted in triplicate using 12-point serial dilutions (0, 0.1, 0.3, 1, 3, 10, 30, 100, 300 nM; 1, 3, 10 µM). Assays were performed in a final volume of 125 µL per well in binding buffer, as detailed in the NIMH PDSP protocols (e.g., standard binding buffer: 50 mM Tris-HCl, pH 7.4, 10 mM MgCl2, 0.1 mM EDTA). Radioligand concentrations were chosen near the target-specific Kd. Total and nonspecific binding were defined in the absence and presence, respectively, of 10 µM reference ligand specific for each receptor. After 90 min incubation at room temperature, reactions were terminated by vacuum filtration onto 0.3% polyethyleneimine-pretreated UniFilter-96 GF/C Microplates using a FilterMate harvester, washed three times with ice-cold buffer (50 mM Tris HCl, pH 7.4), dried, treated with MicroScint-O [compound left out] scintillation cocktails, and counted on a MicroBeta counter. Equilibrium inhibition constants (Ki) were calculated from fitted IC50 values using the Cheng–Prusoff equation [14] with the assay-specific radioligand concentration and Kd. TABLE 1. […] Results represented mean ± SEM from a minimum of 3 independent assays, each in triplicate. ND=not determined.

D5 = target: T5, D5 (Homo sapiens, UniProt P21918); assay: biochemical; parameters: species or system HEK293; PDSP competitive radioligand binding, membranes of transfected HEK293 cells, filtration, Ki by Cheng-Prusoff
T5 construct: gene DRD5
T5 sequence (P21918 whole entry): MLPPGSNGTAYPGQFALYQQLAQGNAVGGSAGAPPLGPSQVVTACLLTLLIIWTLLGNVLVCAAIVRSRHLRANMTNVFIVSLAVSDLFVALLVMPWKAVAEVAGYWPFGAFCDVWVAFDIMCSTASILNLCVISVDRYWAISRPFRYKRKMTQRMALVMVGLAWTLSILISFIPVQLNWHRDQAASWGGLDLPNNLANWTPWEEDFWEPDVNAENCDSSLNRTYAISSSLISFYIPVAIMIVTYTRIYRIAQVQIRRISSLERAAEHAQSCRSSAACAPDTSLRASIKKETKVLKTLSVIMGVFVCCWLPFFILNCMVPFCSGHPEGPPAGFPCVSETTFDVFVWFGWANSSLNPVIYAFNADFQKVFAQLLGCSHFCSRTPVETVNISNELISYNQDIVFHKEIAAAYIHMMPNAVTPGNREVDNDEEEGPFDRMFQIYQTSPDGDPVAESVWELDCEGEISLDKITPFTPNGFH
Experimental: as §1

[3] = HEK293, read-out: Xanomeline, Assay=Gi1
[4] = HEK293, read-out: Xanomeline, Assay=Gi2
[5] = HEK293, read-out: Xanomeline, Assay=Gi3
[6] = HEK293, read-out: Xanomeline, Assay=GoA
[7] = HEK293, read-out: Xanomeline, Assay=GoB
[8] = HEK293, read-out: N-Desmethyl Xanomeline, Assay=Gi1
[9] = HEK293, read-out: N-Desmethyl Xanomeline, Assay=Gi2
[10] = HEK293, read-out: N-Desmethyl Xanomeline, Assay=Gi3
[11] = HEK293, read-out: N-Desmethyl Xanomeline, Assay=GoA
[12] = HEK293, read-out: N-Desmethyl Xanomeline, Assay=GoB
[13] = N-Desmethyl Xanomeline, Assay=Gi2
[14] = N-Desmethyl Xanomeline, Assay=GoB
[15] = read-out: N-desmethyl-xanomeline (PDSP) pKi (converted)

In the case of `CCCCCCOc1nsnc1C1=CCCN(C)C1` [Xanomeline], the Emax (CHRM2; [3]) is reported as 64.6%, the Emax (CHRM2; [4]) is reported as 81.2% and the Emax (CHRM2; [5]) is reported as 30.2%. The Emax (CHRM2; [6]) was 99.1%, the Emax (CHRM2; [7]) was 97.2% and the Emax (CHRM2; HEK293, read-out: Xanomeline, Assay=Gz) was 60.4%. It also gave an Emax (HTR1A [1]; [4]) of 99.6%, an Emax (HTR1A [1]; [6]) of 94.5% and an Emax (HTR1A [1]; [7]) of 91.7%. It also gave an Emax (HRH4; [3]) of 49.5%, an Emax (HRH4; [4]) of 65.8% and an Emax (HRH4; [5]) of 40.2%. For the same compound, the Emax (HRH4; [6]) was 37.4%, the EC50 (HRH3; Xanomeline, Assay=Gi2) was 10.3 µM and the EC50 (HRH3; Xanomeline, Assay=GoA) was 4.13 µM. It also gave an EC50 (HRH3; Xanomeline, Assay=GoB) of 2.64 µM, an EC50 (HTR1A [2]; Xanomeline, Assay=Gi2) of 11.7 µM and an EC50 (HTR1A [2]; Xanomeline, Assay=GoA) of 2.34 µM. The EC50 (HTR1A [2]; Xanomeline, Assay=GoB) was 3.69 µM, the Ki (5-HT2C) was 0.204 µM and the Ki (DOR) was greater than 10 µM. For the same compound, the Ki (D5) was greater than 10 µM.
`CCCCCCOc1nsnc1C1=CCCNC1` [N-desmethylxanomeline] showed an Emax (CHRM2; [8]) of 87.3%, an Emax (CHRM2; [9]) of 88.1% and an Emax (CHRM2; [10]) of 65.4%. The Emax (CHRM2; [11]) was 101%, the Emax (CHRM2; [12]) was 95.1% and the Emax (CHRM2; HEK293, read-out: N-Desmethyl Xanomeline, Assay=Gz) was 81.5%. For the same compound, the Emax (HTR1A [1]; [9]) was 103%, the Emax (HTR1A [1]; [11]) was 97.4% and the Emax (HTR1A [1]; [12]) was 98.8%. For the same compound, the Emax (HRH4; [8]) was 79.3%, the Emax (HRH4; [9]) was 81% and the Emax (HRH4; [10]) was 86.8%. It also gave an Emax (HRH4; [11]) of 81.7%, an EC50 (HRH3; N-Desmethyl Xanomeline, Assay=Gi1) of 10.9 µM and an EC50 (HRH3; [13]) of 4.53 µM. It also gave an EC50 (HRH3; N-Desmethyl Xanomeline, Assay=Gi3) of 18.7 µM, an EC50 (HRH3; [14]) of 7.02 µM and an EC50 (HTR1A [2]; [13]) of 4.33 µM. It also gave an EC50 (HTR1A [2]; N-Desmethyl Xanomeline, Assay=GoA) of 1.32 µM, an EC50 (HTR1A [2]; [14]) of 2 µM and a Ki (5-HT2C) of 0.324 µM. It also gave a Ki (DOR; [15]) greater than 10 µM and a Ki (D5; [15]) greater than 10 µM.
